Results reported in patent US7745423B2, “Calcium/sodium salt of inositol tripyrophosphate as an allosteric effector of hemoglobin” (NormOxys, Inc, priority 2004, dated 2010).
“And” between values parts separate entries of the source, which are not always exact repeats. Equal entries are not always repeated.

Tests used:
human free Hb = human free Hb (Homo sapiens, UniProt P68871+P69905); experiment: P50 of human free Hb after incubation with compound (HEMOX analyzer); type: biochemical; settings: compound solution 60 mM
Chain of human free Hb (P69905 2-142 limits assumed): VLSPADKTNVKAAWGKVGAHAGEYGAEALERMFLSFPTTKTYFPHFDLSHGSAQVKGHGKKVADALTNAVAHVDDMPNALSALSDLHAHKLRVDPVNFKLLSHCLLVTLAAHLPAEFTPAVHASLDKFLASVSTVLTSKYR
Chain of human free Hb (P68871 2-147 limits assumed): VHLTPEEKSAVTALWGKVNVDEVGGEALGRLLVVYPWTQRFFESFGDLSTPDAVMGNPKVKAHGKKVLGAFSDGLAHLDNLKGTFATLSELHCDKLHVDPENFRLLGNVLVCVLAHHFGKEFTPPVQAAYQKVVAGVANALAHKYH
Protocol: (§1) For the in vitro experiments, ITPP was dissolved in deionized water, pH was adjusted at pH 7 and, for incubation with whole blood, the osmolarity of the ITPP solutions was adjusted with glucose to 270-297 mOsM. Mixtures of hemoglobin and ITPP were measured with a HEMOX analyzer (PD Marketing, London) immediately after mixing. Red blood cells were incubated with ITPP for 1 hour at 37° C. Following incubation, the cells were washed 3 times with Bis-Tris-buffer (pH=7.0) and then used for P50 measurement.

murine free Hb = murine free Hb (Mus musculus, UniProt P01942+P02088); experiment: P50 of murine free Hb after incubation with compound (HEMOX analyzer); type: biochemical; settings: for P50 (Torr) Hb + compound / P50 increase (%) + SD: murine free Hb, compound solution 60 mM
Chain of murine free Hb (P01942 2-142 limits assumed): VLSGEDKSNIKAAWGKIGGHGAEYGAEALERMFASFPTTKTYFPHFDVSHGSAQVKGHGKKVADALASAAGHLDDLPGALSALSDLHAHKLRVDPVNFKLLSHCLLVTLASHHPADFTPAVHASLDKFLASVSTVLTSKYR
Chain of murine free Hb (P02088 2-147 limits assumed): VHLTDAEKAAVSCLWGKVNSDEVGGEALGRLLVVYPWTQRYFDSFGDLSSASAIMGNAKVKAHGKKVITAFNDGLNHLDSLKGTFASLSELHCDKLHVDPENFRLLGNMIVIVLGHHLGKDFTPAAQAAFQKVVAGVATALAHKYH
Protocol: as §1

human whole blood = experiment: P50 of human whole blood after incubation with compound; type: cell-based; settings: for P50 (Torr) compound + whole blood / P50 increase (%) + SD: human whole blood
Protocol: as §1
(§2) ITPP-Ca4Na acts as a powerful effector of hemoglobin shifting the oxygen fixation curves to the right, with respect to the natural effector bisphosphoglycerate. […] In FIG. 6, hemoglobin is incubated (at concentrations up to 100 mM final) with ITPP Ca4Na, for 1 hour at 37° C. and measured by TCS-hemox analyzer for p50 shifts. In FIG. 7, whole human blood was incubated (at concentrations up to 120 mM final) with ITPP Ca4Na, for 1 hour 37° C. and measured by TCS-hemox analyzer for p50 shifts.

murine whole blood = experiment: P50 of murine whole blood after incubation with compound; type: cell-based
Protocol: as §1

porcine free Hb = porcine free Hb (Sus scrofa, UniProt P01965+P02067); experiment: P50 of porcine free Hb after incubation with compound (HEMOX analyzer); type: biochemical; settings: compound solution 60 mM
Chain of porcine free Hb (P01965 whole entry): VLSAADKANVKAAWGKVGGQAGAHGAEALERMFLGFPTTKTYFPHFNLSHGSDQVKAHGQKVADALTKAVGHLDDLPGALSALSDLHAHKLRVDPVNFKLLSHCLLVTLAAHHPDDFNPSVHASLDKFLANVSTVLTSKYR
Chain of porcine free Hb (P02067 2-147 limits assumed): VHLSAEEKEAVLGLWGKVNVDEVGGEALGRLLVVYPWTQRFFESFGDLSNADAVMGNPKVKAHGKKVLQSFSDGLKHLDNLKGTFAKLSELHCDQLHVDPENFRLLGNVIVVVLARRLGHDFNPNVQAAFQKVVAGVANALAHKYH
Protocol: as §1

porcine whole blood = experiment: P50 of porcine whole blood after incubation with compound; type: cell-based; settings: compound 60 mM
Protocol: as §1

[1] = tested on: hypoxic endothelial cells; experiment: ITPP-Ca/Na loaded red blood cells on hypoxic endothelial cells in vitro; type: cell-based
hemoglobin [2] = molecular target: T1, hemoglobin (Homo sapiens, UniProt P68871+P69905); settings: higher than DPG; cited from earlier work
T1 sequence (P69905 2-142 limits assumed): as the sequence (P69905 2-142 limits assumed) above
T1 sequence (P68871 2-147 limits assumed): as the sequence (P68871 2-147 limits assumed) above

[3] = tested on: VEGF mRNA in Lewis Lung carcinoma (LLC) tumors; experiment: VEGF mRNA (RT-PCR) in Lewis Lung carcinoma tumors of ITPP drinking mice; type: in vivo, C57BL/6 mice; settings: LLC tumor-bearing mice, ITPP 20 g/L orally, day 9, versus controls
Protocol: ITPP, when administered orally, intravenously, or intraperitoneally, inhibits angiogenesis in growing tumors by enhancing the PO2 in the forming tumors. […] Thereafter, all animals received 1×10^6 Lewis Lung carcinoma (LLC) cells, injected in the dorsal cavity. At different time points, the VEGF mRNA were assayed by RT-PCR in the tumors growing in both groups of mice.
There was a difference in the level of mRNA of the VEGF gene in both groups. […] The RT-PCR agarose gel assay of VEGF mRNAs from tumor tissue taken from 2 mice each on day 15 after inoculation of LLC cells (track 1: controls, track 2: ITPP treated animals) and day 30 after inoculation (track 3: control animals, track 4: ITPP treated animals).
Quantification of the gel assays indicated a reduction by a factor of 10,000 of the amount of VEGF mRNAs detected in the tumors of animals having received ITPP, at day 9 and then, while differences remain between treated and untreated animals, they tend to decrease.

circulating RBCs = experiment: P50 of circulating RBCs after oral ITPP in drinking water; type: in vivo; settings: drinking water 20 g/L (0.27 mM, pH ~7.0) ad libitum
Protocol: ITPP was dissolved in drinking water at a 20 g/L-concentration (0.27 mM, pH ˜7.0.) and offered for drinking ad libitum.

hemoglobin [4] = molecular target: T1, hemoglobin; experiment: p50 shift of hemoglobin incubated with ITPP Ca4Na (TCS-hemox analyzer); type: biochemical; settings: up to 100 mM final, 1 hour at 37° C.
Protocol: as §2

Compound | P50 (Torr) Hb + compound (murine free Hb) [Torr] | P50 increase (%) + SD (murine free Hb) [%] | P50 (Torr) compound + whole blood (murine whole blood; compound 30 mM) [Torr] | P50 increase (%) + SD (murine whole blood; compound 30 mM) [%] | further results
O=P1(O)OP(=O)(O)O[C@H]2[C@H](O1)[C@@H]1OP(=O)(O)OP(=O)(O)O[C@@H]1[C@H]1OP(=O)(O)OP(=O)(O)O[C@H]21.c1ccncc1.c1ccncc1.c1ccncc1.c1ccncc1.c1ccncc1.c1ccncc1 (racemic) [Compound 4, pyridinium salt of ITPP] | 50.0 | 100 ± 18 | 42.7 | 13 ± 2 | P50 (Torr) Hb + compound (human free Hb): 31.6 Torr; P50 increase (%) + SD (human free Hb): 107 ± 22%; P50 (Torr) compound + whole blood (human whole blood; compound 30 mM): 24.3 Torr; P50 increase (%) + SD (human whole blood; compound 30 mM): 10 ± 4%
O=P1([O-])OP(=O)([O-])O[C@H]2[C@H](O1)[C@@H]1OP(=O)([O-])OP(=O)([O-])O[C@@H]1[C@H]1OP(=O)([O-])OP(=O)([O-])O[C@H]21.[Na+].[Na+].[Na+].[Na+].[Na+].[Na+] (racemic) [Compound 5, myo-inositol tripyrophosphate-sodium salt] | 69.7 | 180 ± 25 |  |  | P50 (Torr) Hb + compound (human free Hb): 49.8 Torr; P50 increase (%) + SD (human free Hb): 225 ± 19%; P50 (Torr) Hb + compound (porcine free Hb): 68.1 Torr; P50 increase (%) + SD (porcine free Hb): 209 ± 39%; P50 (Torr) compound + whole blood (human whole blood; compound 60 mM): 30.8 Torr; P50 (Torr) compound + whole blood (murine whole blood; compound 4 mM): 47.4 Torr; P50 (Torr) compound + whole blood (porcine whole blood): 44.2 Torr
CN(C)C1CCCCC1.CN(C)C1CCCCC1.CN(C)C1CCCCC1.CN(C)C1CCCCC1.CN(C)C1CCCCC1.CN(C)C1CCCCC1.O=P1(O)OP(=O)(O)O[C@H]2[C@H](O1)[C@@H]1OP(=O)(O)OP(=O)(O)O[C@@H]1[C@H]1OP(=O)(O)OP(=O)(O)O[C@H]21 (racemic) [Compound 7, N,N-dimethylcyclohexyl ammonium salt of ITPP] | 45.1 | 81 ± 15 | 52.0 | 30 ± 3 | 
NC1CCCCCC1.NC1CCCCCC1.NC1CCCCCC1.NC1CCCCCC1.NC1CCCCCC1.NC1CCCCCC1.O=P1(O)OP(=O)(O)O[C@H]2[C@H](O1)[C@@H]1OP(=O)(O)OP(=O)(O)O[C@@H]1[C@H]1OP(=O)(O)OP(=O)(O)O[C@H]21 (racemic) [Compound 11, cycloheptyl ammonium salt of ITPP] | 43.8 | 71 ± 3 | 45.5 | 20 ± 2 | 
NC1CCCCCCC1.NC1CCCCCCC1.NC1CCCCCCC1.NC1CCCCCCC1.NC1CCCCCCC1.NC1CCCCCCC1.O=P1(O)OP(=O)(O)O[C@H]2[C@H](O1)[C@@H]1OP(=O)(O)OP(=O)(O)O[C@@H]1[C@H]1OP(=O)(O)OP(=O)(O)O[C@H]21 (racemic) [Compound 12, cyclooctyl ammonium salt of ITPP] | 30.6 | 23 ± 5 | 41.3 | 9 ± 1 | 
C1CNCCN1.C1CNCCN1.C1CNCCN1.O=P1(O)OP(=O)(O)O[C@H]2[C@H](O1)[C@@H]1OP(=O)(O)OP(=O)(O)O[C@@H]1[C@H]1OP(=O)(O)OP(=O)(O)O[C@H]21 (racemic) [Compound 14, tripiperazinium salt of ITPP] | 82.9 | 254 ± 49 | 41.9 | 7 ± 1 | 
O=P1([O-])OP(=O)([O-])O[C@H]2[C@H](O1)[C@@H]1OP(=O)([O-])OP(=O)([O-])O[C@@H]1[C@H]1OP(=O)([O-])OP(=O)([O-])O[C@H]21.[Ca+2].[Ca+2].[Ca+2] (racemic) [Compound 15, myo-inositol tripyrophosphate-calcium salt] | 61.9 | 130 ± 30 | 42.3 | 8 ± 2 | P50 (Torr) Hb + compound (human free Hb): 33.1 Torr; P50 increase (%) + SD (human free Hb): 170% and 170 ± 32%; P50 (Torr) compound + whole blood (human whole blood; compound 30 mM): 31.0 Torr; P50 increase (%) + SD (human whole blood; compound 30 mM): 25% and 25 ± 3%; P50 (Torr) compound + whole blood (murine whole blood; compound 60 mM): 55.3 Torr
O=P1([O-])OP(=O)([O-])O[C@H]2[C@H](O1)[C@@H]1OP(=O)([O-])OP(=O)([O-])O[C@@H]1[C@H]1OP(=O)([O-])OP(=O)([O-])O[C@H]21.[Ca+2].[Na+].[Na+].[Na+].[Na+] (racemic) [ITPP-Ca/Na, mixed calcium/sodium salt of inositol-tripyrophosphate] |  |  |  |  | effect on HIF-1 induction, VEGF and angiogenesis (FIG. 1) [1]: suppression of HIF-1 induction, VEGF and angiogenesis
O=P(O)(O)O[C@H]1[C@H](OP(=O)(O)O)[C@@H](OP(=O)(O)O)[C@H](OP(=O)(O)O)[C@@H](OP(=O)(O)O)[C@H]1OP(=O)(O)O [IHP, inositol hexaphosphate] |  |  |  |  | affinity to hemoglobin relative to DPG (hemoglobin [2]): 1000 fold
O=P1(O)OC2C3OP(=O)(O)OP(=O)(O)OC3C3OP(=O)(O)OP(=O)(O)OC3C2OP(=O)(O)O1 (stereo not drawn) [ITPP, inositol-tripyrophosphate] |  |  |  |  | P50 shift to higher PO2 (murine free Hb; murine hemoglobin, maximum observed): up to 250%; P50 shift to higher PO2 (murine whole blood; maximum observed): up to 40%; reduction factor of the amount of VEGF mRNAs detected in the tumors [3]: 10,000; shift of the P50 value of circulating RBCs (circulating RBCs): significant shift
O=P1([O-])OC2C3OP(=O)([O-])OP(=O)([O-])OC3C3OP(=O)([O-])OP(=O)([O-])OC3C2OP(=O)([O-])O1.[Ca+2].[Na+].[Na+].[Na+].[Na+] (stereo not drawn) [ITPP-Ca4Na, monocalcium tetrasodium myo-inositol 1,6:2,3:4,5 trispyrophosphate] |  |  |  |  | p50 values of whole human blood (FIG. 7) (human whole blood; up to 120 mM final, 1 hour 37° C.): increase with concentration; p50 values of hemoglobin (FIG. 6) (hemoglobin [4]): increase with concentration
piperazinium salt of ITPP [Compound 13] | 67.7 | 189 ± 43 | 41.7 | 10 ± 2 | 
